IC50 data for 38 molecules are collected here from patent US9963462B2 (priority 2015, dated 2018).

For experiment [1], the target named is SNAP-hSPR (sepiapterin reductase, SPR) (Homo sapiens, UniProt P35270). Put plainly: biochemical. The class given is binding. The conditions noted are these: terbium labelled SNAP-hSPR / SSZ labelled SNAP-EGFP; read-out: hTR-FRET IC50.
Experiment [2] has as its system BH4 levels in SK-N-BE (2) cells. The experiment can be described thus: SKN-N-BE (2) cellular assay, BH4 levels by LC-MS. The class given is cell-based. As to conditions: Homo sapiens, SKNBE2, read-out: SK-N-BE(2) IC50, SK-N-BE (2) cells, BH4 levels by LC-MS.

Each structure is given as a SMILES string.

Chain of SNAP-hSPR (sepiapterin reductase, SPR) (P35270 whole entry): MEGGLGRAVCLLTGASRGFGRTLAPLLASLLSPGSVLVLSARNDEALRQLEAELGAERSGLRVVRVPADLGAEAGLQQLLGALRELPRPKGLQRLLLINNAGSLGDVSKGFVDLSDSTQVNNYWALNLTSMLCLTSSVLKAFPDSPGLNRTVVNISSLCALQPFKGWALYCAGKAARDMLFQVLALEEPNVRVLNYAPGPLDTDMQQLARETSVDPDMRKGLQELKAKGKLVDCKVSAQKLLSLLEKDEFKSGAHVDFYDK

As for `Cc1nc(-n2ncc(C(=O)N3CCc4ccccc4C3)c2C)[nH]c(=O)c1Cl` [Q-0456], the IC50 – broadly, the concentration at which inhibition is half-maximal – came out at 8 nM in experiment [1] and 500 nM in experiment [2].

On to `Cc1nn(-c2nc3ccsc3c(=O)[nH]2)c(C)c1C(=O)N1CCc2ccccc2C1` [Q-0458], for which the IC50 in experiment [1] worked out at 6 nM; in experiment [2], 400 nM.

Turning to `Cc1cc(-n2cc(C(=O)N3CCC(C(F)(F)F)CC3)cn2)[nH]c(=O)c1` [Q-0460, 4-methyl-6-{4-[4-(trifluoromethyl)piperidine-1-carbonyl]-1H-pyrazol-1-yl}-1,2-dihydropyridin-2-one], the half-maximal inhibitory concentration (IC50) in experiment [1] was found to be 3 nM; in experiment [2], 600 nM.

Consider `COC1CCN(C(=O)c2cnn(-c3nc4c(c(=O)[nH]3)CCC4)c2C)CC1` [Q-0461], for which the IC50 in experiment [1] was 3 nM; in experiment [2], 400 nM.

As for `Cc1c(C(=O)N2CCC(Oc3ccccc3)CC2)cnn1-c1nc2c(c(=O)[nH]1)CCC2` [Q-0462], the IC50 was found to be 5 nM in experiment [1] and 94 nM in experiment [2].

`O=C(c1cnn(-c2nc3c(c(=O)[nH]2)CCC3)c1C1CC1)N1CCC(C(F)(F)F)CC1` [Q-0463]: the IC50 in experiment [1] was 4 nM; in experiment [2] it was 300 nM.

For the molecule `Cc1c(C(=O)N2CCC(C#N)CC2)cnn1-c1nc2c(c(=O)[nH]1)CCC2` [Q-0464], the results for the IC50 in experiment [1] and in experiment [2] were 3 nM and 300 nM, respectively.

Regarding `O=c1[nH]c(-c2ccc(Br)cn2)nc2c1CCC2` [Q-0465], the figures for the IC50 in experiment [1] and in experiment [2] were 300 nM and 150000 nM, respectively.

Consider `Cc1c(C(=O)N2CCC(C(F)(F)F)CC2)cnn1-c1cc(C(F)(F)F)cc(=O)[nH]1` [Q-0466, 6-{5-methyl-4-[4-(trifluoromethyl)piperidine-1-carbonyl]-1H-pyrazol-1-yl}-4-(trifluoromethyl)-1,2-dihydropyridin-2-one], for which the IC50 amounted to 1 nM in experiment [1] and 59 nM in experiment [2].

Regarding `Cc1c(C(=O)N2CCCC(Oc3ccccc3)C2)cnn1-c1nc2c(c(=O)[nH]1)CCC2` (stereo not shown) [Q-0468], the figures for the IC50 in experiment [1] and in experiment [2] were 7 nM and 200 nM, respectively.

Turning to `Cc1c(C(=O)N2CCC(C(C)(C)C#N)CC2)cnn1-c1nc2c(c(=O)[nH]1)CCC2` [Q-0469], the IC50 in experiment [1] was 4 nM; in experiment [2], 37 nM.

With `COC1CN(C(=O)c2cnn(-c3nc4c(c(=O)[nH]3)CCC4)c2C)C1` [Q-0470], the IC50 is 5 nM in experiment [1] and 1000 nM in experiment [2].

On to `COC(=O)c1ccc(-c2nc3c(c(=O)[nH]2)CCC3)nc1` [Q-0471], for which the IC50 came to 80 nM in experiment [1] and 16000 nM in experiment [2].

Consider `O=C(c1ccc(-c2nc3c(c(=O)[nH]2)CCC3)nc1)N1CCC(C(F)(F)F)CC1` [Q-0472, 2-{5-[4-(trifluoromethyl)piperidine-1-carbonyl]pyridin-2-yl}-3H,4H,5H,6H,7H-cyclopenta[d]pyrimidin-4-one], for which the IC50 turned out to be 200 nM in experiment [1] and 17000 nM in experiment [2].

With `Cc1c(C(=O)N2CCC(C#N)(c3ccccc3)CC2)cnn1-c1nc2c(c(=O)[nH]1)CCC2` [Q-0473], the IC50 in experiment [1] amounted to 6 nM; in experiment [2] it was 92 nM.

As for `Cc1c(C(=O)N2CCC(CC(F)(F)F)CC2)cnn1-c1nc2c(c(=O)[nH]1)CCC2` [Q-0476], the IC50 in experiment [1] was 3 nM; in experiment [2] it was 56 nM.

Take `Cc1c(C(=O)N2CCC(Oc3ccccc3)C2)cnn1-c1nc2c(c(=O)[nH]1)CCC2` (stereo not shown) [Q-0477]: the results for the IC50 in experiment [1] and in experiment [2] were 5 nM and 91 nM, respectively.

As to `COC1CCN(C(=O)c2cnn(-c3nc4c(c(=O)[nH]3)CCC4)c2C)C1` (stereo not shown) [Q-0478], the half-inhibitory concentration (IC50) amounted to 6 nM in experiment [1] and 1400 nM in experiment [2].

For `Cc1c(C(=O)N2CC(c3ccccc3)C2)cnn1-c1nc2c(c(=O)[nH]1)CCC2` [Q-0479], the results for the IC50 in experiment [1] and in experiment [2] were 6 nM and 100 nM, respectively.

For the molecule `Cc1c(C(=O)O)cnn1-c1nc2c(c(=O)[nH]1)CCC2` [Q-0481, 5-methyl-1-{4-oxo-3H,4H,5H,6H,7H-cyclopenta[d]pyrimidin-2-yl}-1H-pyrazole-4-carboxylic acid], the IC50 amounted to 30 nM in experiment [1] and 95000 nM in experiment [2].

Regarding `COC1CCCN(C(=O)c2cnn(-c3nc4c(c(=O)[nH]3)CCC4)c2C)C1` (stereo not shown) [Q-0482], the IC50 in experiment [1] was 8 nM; in experiment [2] it was 1000 nM.

With `Cc1c(C(=O)N2CCC(O)(c3ccccc3)CC2C)cnn1-c1nc2c(c(=O)[nH]1)CCC2` (stereo not shown) [Q-0483], the results for the IC50 in experiment [1] and in experiment [2] were 4 nM and 49 nM, respectively.

Regarding `Cc1ccccc1N1CCN(C(=O)c2cnn(-c3nc4c(c(=O)[nH]3)CCC4)c2C)CC1` [Q-0485], the 50% inhibitory concentration (IC50) in experiment [1] was 9 nM; in experiment [2], 62 nM.

On to `Cc1c(C(=O)N(C)Cc2nnc(-c3ccc(Cl)cc3)o2)cnn1-c1nc2c(c(=O)[nH]1)CCC2` [Q-0486], for which the IC50 amounted to 6 nM in experiment [1] and 100 nM in experiment [2].

In the case of `Cc1c(C(=O)N(CCC#N)C2CCCCC2)cnn1-c1nc2c(c(=O)[nH]1)CCC2` [Q-0487], the half-inhibitory concentration (IC50) was found to be 3 nM in experiment [1] and 600 nM in experiment [2].

As for `Cc1c(C(=O)N2CCC(c3ccccc3)CC2)cnn1-c1nc2[nH]ccc2c(=O)[nH]1` [Q-0488], the IC50 stood at 20 nM in experiment [1] and 1200 nM in experiment [2].

With `Cc1c(C(=O)N2Cc3ccccc3C[C@H]2C(=O)NC(C)(C)C)cnn1-c1nc2c(c(=O)[nH]1)CCC2` [Q-0489], the IC50 in experiment [1] is 8 nM; in experiment [2] it was 53 nM.

`CCN(Cc1ccccc1)C(=O)c1cnn(-c2nc3c(c(=O)[nH]2)CCC3)c1C` [Q-0490]: the half-inhibitory concentration (IC50) came out at 7 nM in experiment [1] and 100 nM in experiment [2].

`Cc1c(C(=O)N2CCC(Cc3ccccc3)CC2)cnn1-c1nc2c(c(=O)[nH]1)CCC2` [Q-0491]: the IC50 in experiment [1] came to 20 nM; in experiment [2], 37 nM.

Consider `Cc1c(C(=O)N(C)C2CCCCC2)cnn1-c1nc2c(c(=O)[nH]1)CCC2` [Q-0492], for which the figures for the IC50 in experiment [1] and in experiment [2] were 8 nM and 200 nM, respectively.

On to `Cc1c(C(=O)N(Cc2ccccc2)[C@@H](C)c2ccccc2)cnn1-c1nc2c(c(=O)[nH]1)CCC2` [Q-0493], for which the IC50 was found to be 30 nM in experiment [1] and 29 nM in experiment [2].

Regarding `Cc1c(CN2CCCCC2=O)cnn1-c1nc2c(c(=O)[nH]1)CCC2` [Q-0494, 1-[(5-methyl-1-{4-oxo-3H,4H,5H,6H,7H-cyclopenta[d]pyrimidin-2-yl}-1H-pyrazol-4-yL)methyl]piperidin-2-one], the results for the IC50 in experiment [1] and in experiment [2] were 6 nM and 300 nM, respectively.

As for `Cc1c(C(=O)N2CCC(c3ccccc3)CC2)cnn1-c1nc2ccsc2c(=O)[nH]1` [Q-0495], the IC50 in experiment [1] came out at 5 nM; in experiment [2], 51 nM.

As for `Cc1c(C(=O)N2CCC[C@@H]2C(=O)OCc2ccccc2)cnn1-c1nc2c(c(=O)[nH]1)CCC2` [Q-0496], the values for the IC50 in experiment [1] and in experiment [2] were 7 nM and 400 nM, respectively.

In the case of `Cc1c(C(=O)N(C)CCc2c[nH]c3ccccc23)cnn1-c1nc2c(c(=O)[nH]1)CCC2` [Q-0497], the IC50 was 9 nM in experiment [1] and 400 nM in experiment [2].

Take `Cc1c(C(=O)N2CCC(c3c[nH]c4ccccc34)CC2)cnn1-c1nc2c(c(=O)[nH]1)CCC2` [Q-0498]: the IC50 worked out at 20 nM in experiment [1] and 30 nM in experiment [2].

On to `Cc1c(C(=O)N2CCC(c3nc4ccccc4s3)CC2)cnn1-c1nc2c(c(=O)[nH]1)CCC2` [Q-0499], for which the IC50 in experiment [1] came out at 20 nM; in experiment [2], 44 nM.

Consider `Cc1c(C(=O)N(CC2COc3ccccc3O2)C(C)C)cnn1-c1nc2c(c(=O)[nH]1)CCC2` (stereo not shown) [Q-0500], for which the IC50 in experiment [1] is 30 nM; in experiment [2], 97 nM.
